Results from patent publication US20240294499A1, “TARGETED PROTEIN DEGRADATION USING BIFUNCTIONAL COMPOUNDS THAT BIND UBIQUITIN LIGASE AND TARGET MCL-1 PROTEIN” (Captor Therapeutics S.A., priority 2021, published 2024).

Columns and labels:
[1] = target: [MCL-1]-[compound of formula (I)]-[CRBN/DDB1] complex (Homo sapiens, UniProt Q07820+Q96SW2); assay: HTRF ternary complex assay; format: binding; conditions: ternary complex formation; read-out: HTRF ternary complex Average pEC50 by molecule (converted)
In short: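 hMcl-1 and CRBN (mix at 48 nM and 105.6 nM) with Streptavidin-Eu cryptate and anti-6×His-d2 in PPI Europium buffer with 2 mM DTT; compounds in dose-response, 0.5% DMSO. Incubated 180 min at 25° C, TR-FRET 665/620 read. Bell-shaped curve fitted by Gaussian; EC50 reported.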

MV-4-11 cells = assay: Mitochondrial potential changes in cancer cells, flow cytometry (TMRE); format: cell-based; conditions: 5 hours
Method: The effect of compounds 220 and 268 of the invention in MV-4-11 cells was investigated using the following protocol.
MV-4-11 cells were seeded on 384-well plates (0.05 ml) in growth medium containing 1% FBS and 50 nM tetramethylrhodamine ethyl ester (TMRE). Immediately after seeding, compounds in appropriate concentrations were added directly to the cell culture medium. After 5 hours incubation, cells were analyzed by flow cytometry (LSR Fortessa X-20; BD Biosciences). Results were evaluated using FlowJo (V10) software.
FIG. 7 presents the effect of the compound in the mitochondrial potential of MV-4-11 cells treated with 220 for 5 hours. Compound concentration is specified in the top-left corner of each histogram; Dimethyl sulfoxide (DMSO) was used as vehicle control. Population of interest and the percentage of cells included are highlighted with a red bar and shown in bold red ink, respectively.
FIG. 8 presents the concentration dependent decrease (compared to DMSO control) of the population of cells with normal polarized mitochondria after treatment of MV-4-11 cells with the compounds 220 and 268 for 5 hours.

OPM-2 cells = assay: Cell viability assay (CellTiter-Glo), OPM-2; format: cell-based; conditions: Homo sapiens, 24 hours incubation, 1% FBS, read-out: Average pIC50 by molecule OPM-2 (converted)
Text: The effect of various compounds of the invention on the viability of OPM-2, MV-4-11 and ARH-77 cell lines was investigated, using the CTG protocol described below.
OPM-2 and MV-4-11 cell lines are derived from multiple myeloma and acute myeloid leukaemia, respectively. Both cell lines are described in the literature as MCL-1 dependent lines, as opposed to lymphoblast-like ARH-77 cell line, which is described as independent of MCL-1 (Tron A E et al. Nat Commun. 2018; 9: 5341; Caenepeel S et al. Cancer Discov. 2018 December; 8(12):1582-1597).
Cells (OPM-2, MV-4-11 or ARH-77) were seeded on […] in a growth medium with FBS reduced to 1%. Next, compound stocks were pre-diluted in DMSO and added directly to the cells growth medium (final DMSO concentration: 0.5%). Compound concentrations used in this assay: 1/3 dilutions starting at 30 uM (9 to 12 points).
After 24 hours of incubation, cell viability was evaluated using CellTiter-Glo Luminescent Cell Viability Assay (Promega, cat #G7572). Luminescence signal was measured using a CLARIOstar Plus Multi-Mode Microplate Reader (574-590 nm).
Results were normalized to DMSO control.

MCL-1 protein = MCL-1 protein (Homo sapiens, UniProt Q07820); assay: OPM-2 cells: MCL-1 protein degradation, Simple Western; format: cell-based; parameters: endogenous in cells; host or cells: OPM-2; conditions: OPM-2 cell line, 6 h treatment, 100 nM compound, vs DMSO
In short: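 OPM-2 cells in RPMI-1640 with 1% FBS treated with compounds (0.5% DMSO) for 6 h at 100 nM. Lysates analysed by automated capillary Simple Western with MCL-1 D35A5 antibody; % MCL-1 reduction versus DMSO-treated cells (0%).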

Sequence of [MCL-1]-[compound of formula (I)]-[CRBN/DDB1] complex (Q07820 whole entry): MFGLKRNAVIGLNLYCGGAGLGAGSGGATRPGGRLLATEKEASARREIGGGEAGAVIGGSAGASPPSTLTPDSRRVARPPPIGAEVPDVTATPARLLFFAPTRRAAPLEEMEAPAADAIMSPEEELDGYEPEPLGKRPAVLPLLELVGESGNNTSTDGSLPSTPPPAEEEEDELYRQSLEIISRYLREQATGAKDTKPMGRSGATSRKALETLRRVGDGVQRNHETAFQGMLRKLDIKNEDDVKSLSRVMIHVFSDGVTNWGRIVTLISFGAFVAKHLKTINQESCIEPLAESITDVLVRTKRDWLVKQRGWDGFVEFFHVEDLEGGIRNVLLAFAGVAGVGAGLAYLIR
Sequence of [MCL-1]-[compound of formula (I)]-[CRBN/DDB1] complex (Q96SW2 whole entry): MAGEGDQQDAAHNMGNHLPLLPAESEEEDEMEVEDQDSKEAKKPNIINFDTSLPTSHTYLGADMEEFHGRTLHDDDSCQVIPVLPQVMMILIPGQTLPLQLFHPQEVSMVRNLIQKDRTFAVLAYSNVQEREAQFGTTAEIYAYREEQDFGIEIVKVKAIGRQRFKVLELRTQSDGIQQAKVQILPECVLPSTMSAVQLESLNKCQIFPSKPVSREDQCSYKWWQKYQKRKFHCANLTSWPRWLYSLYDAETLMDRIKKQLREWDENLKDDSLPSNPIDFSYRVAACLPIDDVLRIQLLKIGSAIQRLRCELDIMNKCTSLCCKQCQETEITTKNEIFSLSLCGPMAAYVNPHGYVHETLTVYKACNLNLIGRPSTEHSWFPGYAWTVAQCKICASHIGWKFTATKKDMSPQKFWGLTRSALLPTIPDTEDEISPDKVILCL
Sequence of [MCL-1]-[compound of formula (I)]-[CRBN/DDB1] complex (Q16531 whole entry partner): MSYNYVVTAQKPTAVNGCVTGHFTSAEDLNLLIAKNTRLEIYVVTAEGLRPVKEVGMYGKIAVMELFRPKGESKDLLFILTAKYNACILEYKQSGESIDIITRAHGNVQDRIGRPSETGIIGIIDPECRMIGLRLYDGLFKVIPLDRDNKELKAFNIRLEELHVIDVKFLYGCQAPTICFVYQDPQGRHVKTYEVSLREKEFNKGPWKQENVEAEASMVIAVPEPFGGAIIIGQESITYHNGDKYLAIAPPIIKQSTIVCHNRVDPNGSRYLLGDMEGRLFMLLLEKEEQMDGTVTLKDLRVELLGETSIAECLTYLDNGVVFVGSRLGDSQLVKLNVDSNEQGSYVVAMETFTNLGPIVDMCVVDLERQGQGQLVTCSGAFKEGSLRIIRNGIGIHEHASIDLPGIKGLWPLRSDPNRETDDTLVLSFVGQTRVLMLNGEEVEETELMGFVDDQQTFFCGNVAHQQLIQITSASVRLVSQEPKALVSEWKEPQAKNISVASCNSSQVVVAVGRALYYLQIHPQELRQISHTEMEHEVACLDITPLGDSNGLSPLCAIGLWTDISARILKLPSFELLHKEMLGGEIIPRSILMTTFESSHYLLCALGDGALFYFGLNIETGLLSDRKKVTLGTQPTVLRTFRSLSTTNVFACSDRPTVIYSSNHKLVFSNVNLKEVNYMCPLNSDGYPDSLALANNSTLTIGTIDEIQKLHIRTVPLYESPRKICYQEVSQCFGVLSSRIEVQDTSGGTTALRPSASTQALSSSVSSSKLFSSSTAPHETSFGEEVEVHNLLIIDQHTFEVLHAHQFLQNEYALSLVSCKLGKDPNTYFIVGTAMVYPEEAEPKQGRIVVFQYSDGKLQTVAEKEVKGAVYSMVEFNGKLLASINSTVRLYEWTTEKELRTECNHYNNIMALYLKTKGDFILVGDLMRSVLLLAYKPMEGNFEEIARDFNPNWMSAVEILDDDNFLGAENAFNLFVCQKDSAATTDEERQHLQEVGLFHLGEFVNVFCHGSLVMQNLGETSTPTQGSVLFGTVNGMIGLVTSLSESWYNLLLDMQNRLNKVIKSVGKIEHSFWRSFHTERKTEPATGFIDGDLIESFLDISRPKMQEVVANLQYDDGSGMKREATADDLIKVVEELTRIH
Sequence of MCL-1 protein (Q07820 whole entry): as the sequence (Q07820 whole entry) above

Cc1nn(C)c(C)c1-c1c(Cl)ccc2c(CCCOc3cccc4cc(F)ccc34)c(C(=O)O)n(CCN3CCN(C(=O)Cn4c(C)nc5c(C(=O)NC6CCC(=O)NC6=O)cccc54)CC3)c12 (centres unmarked) [Compound 268, 6-chloro-1-{2-[4-(2-{4-[(2,6-dioxopiperidin-3-yl)carbamoyl]-2-methyl-1H-1,3-benzodiazol-1-yl}acetyl)piperazin-1-yl]ethyl}-3-{3-[(6-fluoronaphthalen-1-yl)oxy]propyl}-7-(1,3,5-trimethyl-1H-pyrazol-4-yl)-1H-indole-2-carboxylic acid]
EC50 [1]: < 10 nM
mitochondrial potential (population of cells with normal polarized mitochondria) (MV-4-11 cells): concentration dependent depolarization of mitochondria

Cc1nn(C)c(C)c1-c1c(Cl)ccc2c(CCCOc3cccc4cc(F)ccc34)c(C(=O)O)n(CCN3CCN(C(=O)COc4cccc5c4CN(C4CCC(=O)NC4=O)C5=O)CC3)c12 (centres unmarked) [Compound 220, 6-chloro-1-{2-[4-(2-{[2-(2,6-dioxopiperidin-3-yl)-1-oxo-2,3-dihydro-1H-isoindol-4-yl]oxy}acetyl)piperazin-1-yl]ethyl}-3-{3-[(6-fluoronaphthalen-1-yl)oxy]propyl}-7-(1,3,5-trimethyl-1H-pyrazol-4-yl)-1H-indole-2-carboxylic acid]
EC50 [1]: < 100 nM
mitochondrial potential (population of cells with normal polarized mitochondria) (MV-4-11 cells): concentration dependent depolarization of mitochondria

Cc1nn(C)c(C)c1-c1c(Cl)ccc2c(CCCOc3cccc4ccccc34)c(C(=O)O)n(CCN3CCN(C(=O)COc4cccc5c4C(=O)N(C4CCC(=O)NC4=O)C5=O)CC3)c12 (centres unmarked) [Compound 204, 6-chloro-1-(2-(4-(2-((2-(2,6-dioxopiperidin-3-yl)-1,3-dioxoisoindolin-4-yl)oxy)acetyl)piperazin-1-yl)ethyl)-3-(3-(naphthalen-1-yloxy)propyl)-7-(1,3,5-trimethyl-1H-pyrazol-4-yl)-1H-indole-2-carboxylic acid]
IC50 (OPM-2 cells): ≤ 1000 nM
Simple Western, % of protein reduction (MCL-1 protein): ≥40%

Cc1nn(C)c(C)c1-c1c(F)ccc2c(CCCOc3cccc4cc(F)ccc34)c(C(=O)O)n(CCN3CCN(C(=O)COc4cccc5c4C(=O)N(C4CCC(=O)NC4=O)C5=O)CC3)c12 (centres unmarked) [Compound 215, 1-{2-[4-(2-{[2-(2,6-dioxopiperidin-3-yl)-1,3-dioxo-2,3-dihydro-1H-isoindol-4-yl]oxy}acetyl)piperazin-1-yl]ethyl}-6-fluoro-3-{3-[(6-fluoronaphthalen-1-yl)oxy]propyl}-7-(1,3,5-trimethyl-1H-pyrazol-4-yl)-1H-indole-2-carboxylic acid]
IC50 (OPM-2 cells): ≤ 1000 nM
Simple Western, % of protein reduction (MCL-1 protein): ≥20%
